This is an account of results in publication PMC10831936 (iScience, 2024).

Values joined by “and” are separate entries in the source; they are usually repeats but may differ in a detail not shown here. Equal entries are not always repeated. Structures can show the parent of a compound that is named as a salt. Where two headings read alike, the source gives them in different places.

In assay [1] the test system is ERBB receptors, HTR2A, and downstream signaling pathways. The assay can be described thus: ERBBprofiler multiplexed barcoded assay, overall statements across all receptor batches and sensors. Conditions: PC12 cells, stimulation mix.
The next assay relates to HTR2A NFAT. The assay can be described thus: ERBBprofiler barcoded NFAT pathway sensor, HTR2A co-transfected. The conditions noted are these: for IC50: Rattus norvegicus, PC-12, 6 h, read-out: HTR2A NFAT IC50.
In the next assay the test system is ERK (MAPK). On the set-up: method as in Schaefer et al., 2007. The conditions noted are these: phospho-WB in NR6 cells; ref Schaefer et al., 2007; read-out: IC50_Literature, ERK (MAPK); cited from earlier work.
Assay [2] relates to ERBB2. Details: method as in Schaefer et al., 2007. The conditions noted are these: phospho-WB in NR6 cells; ref Schaefer et al., 2007; read-out: IC50_Literature, ERBB2; cited from earlier work.
The subject of another assay is ERBB4 NFAT. The assay can be described thus: ERBBprofiler barcoded NFAT pathway sensor, ERBB4 co-transfected. It is filed as cell-based, Rattus norvegicus.
In a further assay the test system is ERBB4 EGR1p. The assay can be described thus: ERBBprofiler barcoded EGR1p pathway sensor, ERBB4 co-transfected. The conditions noted are these: for IC50: Rattus norvegicus, PC-12, 6 h, read-out: ERBB4 EGR1p IC50; for EGR1p (ERBB4) activity EC50 (barcode): agonist dose response, PC12 cells, ERBB4 co-transfected, barcode readout.
The next assay has as its system ERBB2/3 EGR1p. As to the kind of experiment: ERBBprofiler barcoded EGR1p pathway sensor, ERBB2/3 co-transfected. Conditions: read-out: ERBB2/3 EGR1p IC50.
Assay [3] concerns ERBB4. Conditions: read-out: IC50_Literature, ERBB4; cell viability overexpressing ERBB4 variants; ref Chakroborty et al., 2022; cited from earlier work.
Assay [4] relates to ERBB2. The conditions noted are these: read-out: IC50_Literature, ERBB2; cited from earlier work.
Another assay relates to EGFR NFAT. As to the kind of experiment: ERBBprofiler barcoded NFAT pathway sensor, EGFR co-transfected. It is filed as cell-based, Rattus norvegicus.
For another assay, the system named is HTR2A EGR1p. As to the kind of experiment: ERBBprofiler barcoded EGR1p pathway sensor, HTR2A co-transfected. Conditions: read-out: HTR2A EGR1p IC50.
Another assay relates to EGFR EGR1p. The assay can be described thus: ERBBprofiler barcoded EGR1p pathway sensor, EGFR co-transfected. Conditions: read-out: EGFR EGR1p IC50.
A further assay deals with ERBB3. Conditions: read-out: IC50_Literature, ERBB3; cited from earlier work.
The next assay has as its system CRE sensor. As to the kind of experiment: CRE sensor only luciferase assay in PC12 cells. It is filed as cell-based, Rattus norvegicus.
For another assay, the system named is calcium. The assay can be described thus: Fluo-4 AM calcium assay in PC12 cells. It is filed as cell-based, Rattus norvegicus. Conditions: stimulation mix.
Assay [5] relates to ERBB2. Details: method as in La Monica et al., 2017. Conditions: phospho-WB in PC9/HER2c1 cells; ref La Monica et al., 2017; read-out: IC50_Literature, ERBB2; cited from earlier work.
The test system of a further assay is cAMP. The assay can be described thus: GloSensor cAMP assay in PC12 cells. It is filed as cell-based, Rattus norvegicus. Conditions: Rattus norvegicus, PC-12, 0.25 h, constant stimulation mix, 15 min, cAMP increase.
Assay [6] deals with EGFR. Conditions: read-out: IC50_Literature, EGFR; phospho-WB in Cos 7 cells; ref Floc'h et al., 2020; cited from earlier work.
Assay [7] concerns ERBB4. On the set-up: method as in Cross et al., 2014. The conditions noted are these: commercial biochemical kinome panel (Millipore); ref Cross et al., 2014; read-out: IC50_Literature, ERBB4; cited from earlier work.
The next assay relates to HTR2A CRE. As to the kind of experiment: ERBBprofiler barcoded CRE pathway sensor, HTR2A co-transfected. Conditions: read-out: CRE (HTR2A) activity EC50 (barcode); agonist dose response, PC12 cells, HTR2A co-transfected, barcode readout.
The target of a further assay is CRE (HTR2A). The assay can be described thus: CRE pathway sensor luciferase assay, HTR2A transfected. It is filed as cell-based, Rattus norvegicus. The conditions noted are these: agonist dose response, PC12 cells, luciferase readout. The procedure:
(§1) 50,000 PC12 cells were seeded per 96-well onto poly-L-lysin (PLL)-coated plates and transfected the following day (day in vitro 1, DIV1) with assay plasmids using Lipofectamine 3000 (Thermo Fisher Scientific). For split TEV assays, plasmids (pcDNA3 or pTag4C backbone) encoding receptor-NTEV-tcs-GV, GRB2-SH2-CTEV (for ERBB receptors) or ARBB2-1-383-CTEV (for HTR2A) (all 10 ng/well), and the p10xUAS-luc2 reporter plasmid (10 ng/well) were used. For pathway assays, the receptor plasmids (15 ng/well) and pathway reporter plasmids (15 ng/well) pEGR1p-luc2 for monitoring MAPK signaling, pCRE-CMVmin-luc2 for monitoring cAMP/Ca^2+ signaling, or p6xNFAT-CMVmin-luc2 for Ca^2+ signaling were used. Transient transfections were conducted according to the manufacturer’s instructions. On DIV2, cells were starved in medium containing 1% FCS for 16 h. […] In the case of antagonist assays, compounds were added at increasing doses together with the stimulus. Cells were lysed in 1x passive lysis buffer (Promega) and subjected to a firefly luciferase assay using a self-made substrate for firefly luciferase.[100] Luciferase activity was analyzed in a Mithras LB 940 Multimode Microplate Reader (Berthold Technologies). All assays were run in 96-well plates using six replicates per condition.

A further assay has as its target NFAT (HTR2A). As to the kind of experiment: NFAT pathway sensor luciferase assay, HTR2A transfected. It is filed as cell-based, Rattus norvegicus. The conditions noted are these: agonist dose response, PC12 cells, luciferase readout. The procedure:
as §1

Assay [8] deals with CRE (cAMP/Ca2+ signaling). The assay can be described thus: ERBBprofiler barcoded CRE sensor only (no receptor transfected). Conditions: Rattus norvegicus, PC-12, read-out: CRE EC50 (barcode).
For a further assay, the system named is ERBB2/3 CRE. The assay can be described thus: ERBBprofiler barcoded CRE pathway sensor, ERBB2/3 co-transfected. The conditions noted are these: Rattus norvegicus, PC-12, 6 h, read-out: ERBB2/3 CRE IC50.
The next assay deals with EGFR CRE. The assay can be described thus: ERBBprofiler barcoded CRE pathway sensor, EGFR co-transfected. The conditions noted are these: Rattus norvegicus, PC-12, 6 h, read-out: EGFR CRE IC50.
In the next assay the target is ERBB2/3 (Homo sapiens, UniProt P04626+P21860). The assay can be described thus: ERBBprofiler barcoded split TEV assay, ERBB2/3.
Assay [9] deals with EGFR (Homo sapiens, UniProt P00533). The assay can be described thus: ERBBprofiler barcoded split TEV assay, EGFR.
A further assay deals with EGR1p (ERBB4). The assay can be described thus: EGR1p pathway sensor luciferase assay, ERBB4 transfected. It is filed as cell-based, Rattus norvegicus. Conditions: agonist dose response, PC12 cells, luciferase readout. The procedure:
as §1

Assay [10] addresses EGR1p (MAPK/ERK signaling). The assay can be described thus: ERBBprofiler barcoded EGR1p sensor only (no receptor transfected). The conditions noted are these: agonist dose response, PC12 cells, barcode readout.
Assay [11] addresses EGR1p (MAPK signaling), EGFR. The assay can be described thus: EGR1p pathway sensor luciferase assay, EGFR. Conditions: agonist dose response, PC12 cells, luciferase readout. It is filed as cell-based, Rattus norvegicus. The procedure: as §1
Assay [12] addresses T1, ERBB4 (Homo sapiens, UniProt Q15303). The assay can be described thus: ERBBprofiler barcoded split TEV assay, ERBB4. Conditions: agonist dose response, PC12 cells, 6 h, split TEV, barcode readout.
The target in assay [13] is T1, ERBB4. As to the kind of experiment: Split TEV firefly luciferase assay, ERBB4. Conditions: agonist dose response, PC12 cells, split TEV, luciferase readout. It is filed as cell-based. The protocol:
as §1

T1 sequence (Q15303 26-1308): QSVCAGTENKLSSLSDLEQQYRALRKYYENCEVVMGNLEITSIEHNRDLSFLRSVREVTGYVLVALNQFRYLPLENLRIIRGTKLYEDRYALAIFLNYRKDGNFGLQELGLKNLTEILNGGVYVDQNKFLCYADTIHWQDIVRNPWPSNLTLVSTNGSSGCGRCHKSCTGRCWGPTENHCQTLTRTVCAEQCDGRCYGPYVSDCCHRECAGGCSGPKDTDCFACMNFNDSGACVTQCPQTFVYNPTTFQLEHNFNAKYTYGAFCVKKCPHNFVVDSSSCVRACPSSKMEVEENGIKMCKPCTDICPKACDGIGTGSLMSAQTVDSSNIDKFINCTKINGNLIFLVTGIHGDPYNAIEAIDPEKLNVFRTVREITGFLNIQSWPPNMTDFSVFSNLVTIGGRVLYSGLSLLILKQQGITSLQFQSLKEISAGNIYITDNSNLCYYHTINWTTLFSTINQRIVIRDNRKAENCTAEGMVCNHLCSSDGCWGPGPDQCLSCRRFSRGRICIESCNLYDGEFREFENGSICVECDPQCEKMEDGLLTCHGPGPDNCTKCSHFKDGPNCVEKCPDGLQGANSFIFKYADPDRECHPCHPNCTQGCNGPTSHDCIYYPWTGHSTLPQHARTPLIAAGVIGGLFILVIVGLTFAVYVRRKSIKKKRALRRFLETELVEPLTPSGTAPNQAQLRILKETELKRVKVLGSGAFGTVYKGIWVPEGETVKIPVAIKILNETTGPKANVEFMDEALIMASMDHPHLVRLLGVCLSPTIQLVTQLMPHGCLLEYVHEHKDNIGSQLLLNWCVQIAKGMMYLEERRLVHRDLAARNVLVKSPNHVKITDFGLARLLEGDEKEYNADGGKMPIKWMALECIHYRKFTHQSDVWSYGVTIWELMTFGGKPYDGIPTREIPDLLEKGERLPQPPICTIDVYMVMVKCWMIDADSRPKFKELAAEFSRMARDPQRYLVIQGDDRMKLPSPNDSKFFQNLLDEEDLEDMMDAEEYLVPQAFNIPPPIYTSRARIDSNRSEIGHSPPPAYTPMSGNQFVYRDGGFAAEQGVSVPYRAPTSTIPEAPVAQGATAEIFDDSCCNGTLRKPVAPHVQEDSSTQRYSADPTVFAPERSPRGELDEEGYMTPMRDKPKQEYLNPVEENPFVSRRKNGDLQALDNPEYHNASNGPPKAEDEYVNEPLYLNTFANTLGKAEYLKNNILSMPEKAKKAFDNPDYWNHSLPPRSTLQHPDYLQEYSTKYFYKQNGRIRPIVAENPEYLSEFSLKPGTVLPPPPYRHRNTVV
Sequence of EGFR (P00533 25-1210): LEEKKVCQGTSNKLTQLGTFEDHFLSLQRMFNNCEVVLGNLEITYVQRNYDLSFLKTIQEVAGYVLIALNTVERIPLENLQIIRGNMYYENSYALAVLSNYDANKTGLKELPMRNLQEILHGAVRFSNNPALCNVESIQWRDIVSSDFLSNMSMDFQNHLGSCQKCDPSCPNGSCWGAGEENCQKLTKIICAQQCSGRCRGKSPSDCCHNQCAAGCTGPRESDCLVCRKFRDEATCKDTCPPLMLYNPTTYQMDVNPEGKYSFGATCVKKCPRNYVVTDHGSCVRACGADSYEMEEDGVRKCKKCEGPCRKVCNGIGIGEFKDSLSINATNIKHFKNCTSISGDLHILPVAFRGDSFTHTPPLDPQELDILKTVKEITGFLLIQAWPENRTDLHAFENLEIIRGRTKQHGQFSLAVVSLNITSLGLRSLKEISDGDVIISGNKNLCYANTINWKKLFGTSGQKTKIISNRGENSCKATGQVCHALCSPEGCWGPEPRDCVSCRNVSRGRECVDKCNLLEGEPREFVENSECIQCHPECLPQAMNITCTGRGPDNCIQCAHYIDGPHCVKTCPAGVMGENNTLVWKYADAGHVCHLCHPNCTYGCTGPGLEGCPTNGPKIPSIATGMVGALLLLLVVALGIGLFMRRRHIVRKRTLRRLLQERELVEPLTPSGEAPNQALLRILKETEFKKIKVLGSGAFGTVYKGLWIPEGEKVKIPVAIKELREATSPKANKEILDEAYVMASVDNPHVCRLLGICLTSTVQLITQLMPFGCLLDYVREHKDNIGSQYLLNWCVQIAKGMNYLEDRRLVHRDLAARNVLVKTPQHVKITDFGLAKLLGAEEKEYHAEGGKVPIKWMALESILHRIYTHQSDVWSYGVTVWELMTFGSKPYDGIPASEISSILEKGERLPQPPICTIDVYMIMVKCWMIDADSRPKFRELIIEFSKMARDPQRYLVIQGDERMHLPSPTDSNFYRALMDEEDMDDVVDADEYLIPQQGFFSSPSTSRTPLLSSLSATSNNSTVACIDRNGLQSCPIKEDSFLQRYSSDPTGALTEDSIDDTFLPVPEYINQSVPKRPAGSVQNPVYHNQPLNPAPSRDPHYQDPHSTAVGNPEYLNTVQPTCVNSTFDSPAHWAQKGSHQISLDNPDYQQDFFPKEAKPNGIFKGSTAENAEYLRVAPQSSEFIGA

For `C[C@]12CCC(=O)C=C1C=C[C@@H]1[C@@H]2CC[C@@]2(C)[C@H]1CC[C@@]21CCC(=O)O1` [Canrenone], the “CRE sensor response at high compound concentration (barcoded)” value in assay [1] (10 μM compound) is “upregulated CRE sensor response”. Besides, the “inhibition of ERBB receptors and pathways (barcoded ERBBprofiler), in words” value in assay [1] is on record as “did not inhibit any ERBB receptor nor pathway monitored”.
On to `C#Cc1cccc(Nc2ncnc3cc(OCCOC)c(OCCOC)cc23)c1` [Erlotinib, Erlotinib hydrochloride], for which the IC50 in the assay with HTR2A NFAT was 98 nM; with ERK (MAPK), 160 to 290 nM; with ERBB2 [2], […]; with ERBB4 EGR1p, 698 nM; in the assay on ERBB2/3 EGR1p (Rattus norvegicus, PC-12, 6 h), 304 nM; in the assay with ERBB4 [3], […]. Also, in the assay on ERBB4 NFAT, the “ERBB4 NFAT IC50” value is on record as “no effect (EGFR, ERBB2/3, ERBB4), 0.098 µM (HTR2A, small effect)”.
Consider `CS(=O)(=O)CCNCc1ccc(-c2ccc3ncnc(Nc4ccc(OCc5cccc(F)c5)c(Cl)c4)c3c2)o1` [Lapatinib, Lapatinib (GW-572016) Ditosylate], for which the IC50 is […] in the assay on ERBB2 [4]; 45 nM with HTR2A EGR1p (Rattus norvegicus, PC-12, 6 h); 34 nM and 34 to 45 nM with HTR2A EGR1p; 244 nM with EGFR EGR1p (Rattus norvegicus, PC-12, 6 h); 122 nM and 122 to 244 nM in the assay with EGFR EGR1p; […] in the assay with ERBB3. The IC50 was 41 nM in the assay with ERBB2/3 EGR1p (Rattus norvegicus, PC-12, 6 h); 71 nM and 41 to 71 nM in the assay on ERBB2/3 EGR1p. Moreover, the “EGFR NFAT IC50” value in the assay on EGFR NFAT is recorded as “no effect (EGFR, ERBB2/3, ERBB4), 0.352 - 4.531 µM (HTR2A)”. Further, in the assay on ERBB4 NFAT, the “ERBB4 NFAT IC50” value is recorded as “no effect (EGFR, ERBB2/3, ERBB4), 0.352 - 4.531 µM (HTR2A)”.
The EC50 is the concentration that produces a half-maximal response. Regarding `C=CC(=O)Nc1cc(Nc2nccc(-c3cn(C)c4ccccc34)n2)c(OC)cc1N(C)CCN(C)C` [Osimertinib, Osimertinib (AZD9291)], in the assay on CRE sensor (PC12 cells, CRE sensor only, stimulation mix), the “effect on CRE sensor activity (luciferase), in words” value was “CRE sensor activation at high compound concentrations”. In addition, the concentration for a half-maximal effect (EC50) with CRE sensor (Rattus norvegicus, PC-12) came out at 3010 nM; in the assay with cAMP it was 3910 nM. In addition, the “effect on calcium levels (Fluo-4 AM)” value in the assay with calcium is “but not calcium levels”. Moreover, the IC50 is 772 nM in the assay with HTR2A NFAT; 109 nM in the assay with HTR2A EGR1p (Rattus norvegicus, PC-12, 6 h); […] in the assay on ERBB2 [5]; 80 nM with EGFR EGR1p (Rattus norvegicus, PC-12, 6 h); 37 nM in the assay on ERBB4 EGR1p; […] in the assay with EGFR [6]. Further, the IC50 with ERBB2/3 EGR1p (Rattus norvegicus, PC-12, 6 h) was 56 nM; in the assay with ERBB4 [7], […]. In the assay on EGFR NFAT, the “EGFR NFAT IC50” value was “no effect (EGFR, ERBB2/3, ERBB4) - 0.772 µM (HTR2A)”. Besides, in the assay on ERBB4 NFAT, the “ERBB4 NFAT IC50” value is reported as “no effect (EGFR, ERBB2/3, ERBB4) - 0.772 µM (HTR2A)”.
With `NCCc1c[nH]c2ccc(O)cc12` [Serotonin, Serotonin hydrochloride], the EC50 in the assay on HTR2A CRE was 164 nM; on CRE (HTR2A) it was 465 nM; in the assay with HTR2A NFAT (read-out: NFAT (HTR2A) activity EC50 (barcode), agonist dose response, PC12 cells, HTR2A co-transfected, barcode readout), 73 nM; at NFAT (HTR2A), 61 nM; in assay [8], 167 nM.
Turning to `CC(=O)S[C@@H]1CC2=CC(=O)CC[C@]2(C)[C@H]2CC[C@@]3(C)[C@@H](CC[C@@]34CCC(=O)O4)[C@H]12` [Spironolactone], the IC50 in the assay with ERBB2/3 CRE was 905 nM; in the assay on EGFR CRE it was 8.41 nM; against ERBB2/3 it was over 10000 nM; in the assay on ERBB4 EGR1p, over 10000 nM; at EGFR [9] it was over 10000 nM.
Turning to “Heregulin-β1 (EGF Domain) human (EGF-like domain) [EGFld]”, the “EGR1p (ERBB4) activity EC50 (luciferase)” value on EGR1p (ERBB4) was 0.384 ng/mL. Further, the “EGR1p (ERBB4) activity EC50 (barcode)” value with ERBB4 EGR1p came out at 0.607 ng/mL.
Turning to hEGF, in assay [10], the “EGR1p activity EC50 (barcode)” value stood at 0.089 ng/mL. Also, the “EGR1p activity EC50 (luciferase)” value in assay [11] stood at 0.161 ng/mL. The “EGR1p (ERBB4) activity EC50 (barcode)” value with ERBB4 EGR1p came to 0.093 ng/mL.

B1: Heregulin-β1 (EGF Domain) human (EGF-like domain) (protein)
chain: TSHLVKCAEKEKTFCVNGGECFMVKDLSNPSRYLCKCPNEFTGDRCQNYVMASFYKHLGIEFMEAEELYQK
modifications: three disulfides
notes: EGF-like domain, ligand for ERBB3 and ERBB4
For B1, the “ERBB4 activity EC50 (barcode)” value with ERBB4 [12] is 1.372 ng/mL. The “ERBB2/3 EC50 (barcode)” value with ERBB2/3 (agonist dose response, PC12 cells, 6 h, split TEV, barcode readout) worked out at 0.143 ng/mL. Further, the “ERBB4 activity EC50 (luciferase)” value in the assay with ERBB4 [13] came to 0.700 ng/mL.
